Experimental data from ChEMBL document CHEMBL1201862, “PubChem BioAssay data set” (2004).
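Five concentrations, 48 hours, 96-well plates. The concentration for 50% growth inhibition is given as GI50.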 Active and inactive are the calls of the source. Cut-off read from the data, not from the text of the source: active = GI50 up to about 1.1 µM and inactive = higher.

Assays:
Test in all cases: DTP human tumour cell line panel, 48 h
COLO 205 = system: COLO 205
SF-268 = system: SF-268
SF-539 = system: SF-539
HCT-116 = system: HCT-116
HCC 2998 = system: HCC 2998
DMS-114 = system: DMS-114
NCI-H23 = system: NCI-H23
DMS-273 = system: DMS-273
SR = system: SR
OVCAR-8 = system: OVCAR-8
A549 = system: A549
HT-29 = system: HT-29
M14 = system: M14
RPMI-8226 = system: RPMI-8226
ACHN = system: ACHN
UACC-257 = system: UACC-257
KM-20L2 = system: KM-20L2
HL-60 = system: HL-60
M19-MEL = system: M19-MEL
SN12C = system: SN12C
NCI-H226 = system: NCI-H226
OVCAR-5 = system: OVCAR-5
HOP-92 = system: HOP-92
SK-MEL-5 = system: SK-MEL-5
SK-MEL-2 = system: SK-MEL-2
XF498 = system: XF498
LXFL 529 = system: LXFL 529
RXF 393 = system: RXF 393
NCI-H460 = system: NCI-H460
SNB-78 = system: SNB-78
OVCAR-4 = system: OVCAR-4
UO-31 = system: UO-31
MOLT-4 = system: MOLT-4
SK-MEL-28 = system: SK-MEL-28
EKVX = system: EKVX
HCT-15 = system: HCT-15
SW-620 = system: SW-620
UACC-62 = system: UACC-62
LOX IMVI = system: LOX IMVI
SNB-19 = system: SNB-19
HOP-62 = system: HOP-62
IGROV-1 = system: IGROV-1
TK-10 = system: TK-10
CCRF-CEM = system: CCRF-CEM
SF-295 = system: SF-295
Malme-3M = system: Malme-3M
SNB-75 = system: SNB-75
U-251 = system: U-251
DLD-1 = system: DLD-1
OVCAR-3 = system: OVCAR-3
KM12 = system: KM12
K562 = system: K562
786-0 = system: 786-0
NCI-H522 = system: NCI-H522
SK-OV-3 = system: SK-OV-3

O=C(N/C=C1\C(=O)Oc2ccccc2C1=O)NC1CCCCC1
GI50 (COLO 205): > 100 µM (inactive) | GI50 (SF-268): 41.2 µM (inactive) | GI50 (SF-539): > 100 µM (inactive) | GI50 (HCT-116): 78.5 µM (inactive) | GI50 (HCC 2998): > 100 µM (inactive) | GI50 (DMS-114): 45.3 µM (inactive) | GI50 (NCI-H23): 69 µM (inactive) | GI50 (DMS-273): > 100 µM (inactive) | GI50 (SR): > 100 µM (inactive) | GI50 (OVCAR-8): > 100 µM (inactive) | GI50 (A549): > 100 µM (inactive) | GI50 (HT-29): > 100 µM (inactive) | GI50 (M14): 50.2 µM (inactive) | GI50 (RPMI-8226): > 100 µM (inactive) | GI50 (ACHN): 30.5 µM (inactive) | GI50 (UACC-257): 69.7 µM (inactive) | GI50 (KM-20L2): > 100 µM (inactive) | GI50 (HL-60): 40 µM (inactive) | GI50 (M19-MEL): 73.5 µM (inactive) | GI50 (SN12C): 39.7 µM (inactive) | GI50 (NCI-H226): 41.1 µM (inactive) | GI50 (OVCAR-5): > 100 µM (inactive) | GI50 (HOP-92): 18.5 µM (inactive) | GI50 (SK-MEL-5): > 100 µM (inactive) | GI50 (SK-MEL-2): 24.2 µM (inactive) | GI50 (XF498): 21.4 µM (inactive) | GI50 (LXFL 529): 63.1 µM (inactive) | GI50 (RXF 393): 19.9 µM (inactive) | GI50 (NCI-H460): > 100 µM (inactive) | GI50 (SNB-78): 22.9 µM (inactive) | GI50 (OVCAR-4): 77.8 µM (inactive) | GI50 (UO-31): 21.3 µM (inactive) | GI50 (MOLT-4): 62.7 µM (inactive) | GI50 (SK-MEL-28): 46.7 µM (inactive) | GI50 (EKVX): > 100 µM (inactive) | GI50 (HCT-15): 37.3 µM | GI50 (SW-620): 98.4 µM (inactive) | GI50 (UACC-62): 28 µM (inactive) | GI50 (LOX IMVI): 85.3 µM (inactive) | GI50 (SNB-19): 42.7 µM (inactive) | GI50 (HOP-62): 68.4 µM (inactive) | GI50 (IGROV-1): 56.5 µM (inactive) | GI50 (TK-10): > 100 µM (inactive)

CCC(C)CNC1=C(NC(C)=O)C(=O)c2ccccc2C1=O (centres undefined)
GI50 (COLO 205): 78.9 µM (inactive) | GI50 (SF-268): > 100 µM (inactive) | GI50 (CCRF-CEM): > 100 µM (inactive) | GI50 (SF-539): > 100 µM (inactive) | GI50 (HCT-116): > 100 µM (inactive) | GI50 (HCC 2998): > 100 µM (inactive) | GI50 (SF-295): > 100 µM (inactive) | GI50 (NCI-H23): 67.8 µM (inactive) | GI50 (DMS-273): > 100 µM (inactive) | GI50 (SR): > 100 µM (inactive) | GI50 (Malme-3M): 35.5 µM (inactive) | GI50 (OVCAR-8): > 100 µM (inactive) | GI50 (SNB-75): > 100 µM (inactive) | GI50 (A549): > 100 µM (inactive) | GI50 (HT-29): > 100 µM (inactive) | GI50 (M14): > 100 µM (inactive) | GI50 (ACHN): > 100 µM (inactive) | GI50 (UACC-257): > 100 µM (inactive) | GI50 (KM-20L2): > 100 µM (inactive) | GI50 (HL-60): > 100 µM (inactive) | GI50 (M19-MEL): 20.7 µM (inactive) | GI50 (SN12C): > 100 µM (inactive) | GI50 (NCI-H226): > 100 µM (inactive) | GI50 (SK-MEL-5): 31.6 µM (inactive) | GI50 (SK-MEL-2): > 100 µM (inactive) | GI50 (U-251): > 100 µM (inactive) | GI50 (XF498): > 100 µM (inactive) | GI50 (DLD-1): > 100 µM (inactive) | GI50 (OVCAR-3): 55.7 µM (inactive) | GI50 (KM12): > 100 µM (inactive) | GI50 (LXFL 529): > 100 µM (inactive) | GI50 (RXF 393): > 100 µM (inactive) | GI50 (NCI-H460): 94.6 µM (inactive) | GI50 (SNB-78): > 100 µM (inactive) | GI50 (OVCAR-4): > 100 µM (inactive) | GI50 (UO-31): > 100 µM (inactive) | GI50 (MOLT-4): > 100 µM (inactive) | GI50 (K562): > 100 µM (inactive) | GI50 (786-0): > 100 µM (inactive) | GI50 (SK-MEL-28): > 100 µM (inactive) | GI50 (EKVX): > 100 µM (inactive) | GI50 (HCT-15): > 100 µM | GI50 (SW-620): > 100 µM (inactive) | GI50 (NCI-H522): 78.2 µM (inactive) | GI50 (UACC-62): > 100 µM (inactive) | GI50 (LOX IMVI): > 100 µM (inactive) | GI50 (SNB-19): > 100 µM (inactive) | GI50 (SK-OV-3): > 100 µM (inactive) | GI50 (HOP-62): > 100 µM (inactive) | GI50 (IGROV-1): > 100 µM (inactive) | GI50 (TK-10): > 100 µM (inactive)
